Experimental data published in the supplement of paper PMC10307832.

Legend:
Assay in all cases: relative viability (nuclei count vs DMSO), 5 days (fraction); higher = more cells survive
[1] = compound: C1=CC(=CC=C1NC(=S)NNC2=C(C=C(C=C2[N+](=O)[O-])C(F)(F)F)[N+](=O)[O-])F [Kobe2602] + Cc1nc(NC(=O)N2CCC[C@H]2C(N)=O)sc1-c1ccnc(C(C)(C)C(F)(F)F)c1 [Alpelisib] (partner 2 µM)
How it was run: (§1)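 Dosing by pin tool came one day after lung cancer cell lines were seeded in 1536-well plates, using either one drug or a fixed anchor-drug dose plus five library-drug doses (not always all listed) in √10 steps. After 5 days, nuclei were counted on 4× images. Relative viability is treated-well nuclei count divided by vehicle-well nuclei count, and values are medians of duplicate plates.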

[2] = compound: COc1cc2nccc(Oc3ccc(NC(=O)C4(C(=O)Nc5ccc(F)cc5)CC4)cc3)c2cc1OC [Cabozantinib] + Cc1cc(Nc2cc(N3CCN(C)CC3)nc(Sc3ccc(NC(=O)C4CC4)cc3)n2)n[nH]1 [Tozasertib] (partner 0.1 µM)
How it was run: as §1

[3] = compound: O[C@@H](COc1cccc2ncccc12)CN1CCN([C@@H]2c3ccccc3[C@@H]3[C@H](c4ccccc42)C3(F)F)CC1 [Zosuquidar] + CC1(C)CCC(c2ccc(Cl)cc2)=C(CN2CCN(c3ccc(C(=O)NS(=O)(=O)c4ccc(N[C@H](CCN5CCOCC5)CSc5ccccc5)c(S(=O)(=O)C(F)(F)F)c4)cc3)CC2)C1 [Navitoclax] (partner 0.5 µM)
How it was run: as §1

[4] = compound: O[C@@H](COc1cccc2ncccc12)CN1CCN([C@@H]2c3ccccc3[C@@H]3[C@H](c4ccccc42)C3(F)F)CC1 [Zosuquidar] + NC(=O)Nc1cc(-c2cccc(F)c2)sc1C(=O)N[C@H]1CCCNC1 [AZD7762] (partner 0.2 µM)
How it was run: as §1

## NCI-H520
[1]; first compound 0.2 µM
  relative viability: 0.912
[1]; first compound 0.6325 µM
  relative viability: 1.12
[1]; first compound 2 µM
  relative viability: 0.848
[1]; first compound 6.325 µM
  relative viability: 0.84
[1]; first compound 20 µM
  relative viability: 0.859
[2]; first compound 0.02 µM
  relative viability: 0.52
[2]; first compound 0.06325 µM
  relative viability: 0.442
[2]; first compound 0.2 µM
  relative viability: 0.432
[2]; first compound 0.6325 µM
  relative viability: 0.392
[2]; first compound 2 µM
  relative viability: 0.386
[3]; first compound 0.01 µM
  relative viability: 1.16
[3]; first compound 0.03162 µM
  relative viability: 1.15
[3]; first compound 0.1 µM
  relative viability: 0.986
[3]; first compound 0.3162 µM
  relative viability: 1.03
[3]; first compound 1 µM
  relative viability: 1.02

## COR-L 105
[1]; first compound 0.2 µM
  relative viability: 0.771
[1]; first compound 0.6325 µM
  relative viability: 1.08
[1]; first compound 2 µM
  relative viability: 0.78
[1]; first compound 6.325 µM
  relative viability: 0.973
[1]; first compound 20 µM
  relative viability: 0.938
[2]; first compound 0.02 µM
  relative viability: 0.397
[2]; first compound 0.06325 µM
  relative viability: 0.457
[2]; first compound 0.6325 µM
  relative viability: 0.361
[2]; first compound 2 µM
  relative viability: 0.342
[3]; first compound 0.01 µM
  relative viability: 0.944
[3]; first compound 0.03162 µM
  relative viability: 0.638
[3]; first compound 0.1 µM
  relative viability: 0.725
[3]; first compound 0.3162 µM
  relative viability: 0.968
[3]; first compound 1 µM
  relative viability: 0.631

## NCI-H2009
[1]; first compound 0.2 µM
  relative viability: 1.12
[1]; first compound 0.6325 µM
  relative viability: 1.22
[1]; first compound 2 µM
  relative viability: 1.13
[1]; first compound 6.325 µM
  relative viability: 1.3
[1]; first compound 20 µM
  relative viability: 1.18
[2]; first compound 0.02 µM
  relative viability: 0.827
[2]; first compound 0.06325 µM
  relative viability: 0.889
[2]; first compound 0.2 µM
  relative viability: 0.768
[2]; first compound 0.6325 µM
  relative viability: 0.699
[2]; first compound 2 µM
  relative viability: 0.668
[3]; first compound 0.01 µM
  relative viability: 1.19
[3]; first compound 0.03162 µM
  relative viability: 1.12
[3]; first compound 0.1 µM
  relative viability: 1.13
[3]; first compound 0.3162 µM
  relative viability: 1.1
[3]; first compound 1 µM
  relative viability: 1.14

## NCI-H1563
[1]; first compound 0.2 µM
  relative viability: 0.939
[1]; first compound 0.6325 µM
  relative viability: 0.917
[1]; first compound 2 µM
  relative viability: 0.871
[1]; first compound 6.325 µM
  relative viability: 0.839
[1]; first compound 20 µM
  relative viability: 1.08

## NCI-H1703
[1]; first compound 0.2 µM
  relative viability: 0.313
[1]; first compound 0.6325 µM
  relative viability: 0.347
[1]; first compound 2 µM
  relative viability: 0.333
[1]; first compound 6.325 µM
  relative viability: 0.392
[1]; first compound 20 µM
  relative viability: 0.306
[3]; first compound 0.01 µM
  relative viability: 1.39
[3]; first compound 0.03162 µM
  relative viability: 1.36
[3]; first compound 0.1 µM
  relative viability: 1.44
[3]; first compound 0.3162 µM
  relative viability: 1.33
[3]; first compound 1 µM
  relative viability: 1.05
[4]; first compound 0.01 µM
  relative viability: 0.0988
[4]; first compound 0.03162 µM
  relative viability: 0.125
[4]; first compound 0.3162 µM
  relative viability: 0.136
[4]; first compound 1 µM
  relative viability: 0.125

## NCI-H358
[1]; first compound 0.2 µM
  relative viability: 0.799
[1]; first compound 0.6325 µM
  relative viability: 0.836
[1]; first compound 2 µM
  relative viability: 0.677
[1]; first compound 6.325 µM
  relative viability: 0.884
[1]; first compound 20 µM
  relative viability: 0.827
[2]; first compound 0.02 µM
  relative viability: 0.106
[2]; first compound 0.06325 µM
  relative viability: 0.0894
[2]; first compound 0.2 µM
  relative viability: 0.103
[2]; first compound 0.6325 µM
  relative viability: 0.0924
[2]; first compound 2 µM
  relative viability: 0.108
[4]; first compound 0.01 µM
  relative viability: 0.55
[4]; first compound 0.03162 µM
  relative viability: 0.541
[4]; first compound 0.1 µM
  relative viability: 0.492
[4]; first compound 0.3162 µM
  relative viability: 0.503
[4]; first compound 1 µM
  relative viability: 0.43

## EBC-1
[1]; first compound 0.2 µM
  relative viability: 0.876
[1]; first compound 0.6325 µM
  relative viability: 0.963
[1]; first compound 2 µM
  relative viability: 0.958
[1]; first compound 6.325 µM
  relative viability: 0.839
[1]; first compound 20 µM
  relative viability: 0.894
[3]; first compound 0.01 µM
  relative viability: 0.451
[3]; first compound 0.03162 µM
  relative viability: 0.417
[3]; first compound 0.1 µM
  relative viability: 0.466
[3]; first compound 0.3162 µM
  relative viability: 0.493
[3]; first compound 1 µM
  relative viability: 0.417

## NCI-H1792
[1]; first compound 0.2 µM
  relative viability: 0.633
[1]; first compound 0.6325 µM
  relative viability: 0.749
[1]; first compound 2 µM
  relative viability: 0.696
[1]; first compound 6.325 µM
  relative viability: 0.615
[1]; first compound 20 µM
  relative viability: 0.679
[3]; first compound 0.01 µM
  relative viability: 0.603
[3]; first compound 0.03162 µM
  relative viability: 0.621
[3]; first compound 0.1 µM
  relative viability: 0.53
[3]; first compound 0.3162 µM
  relative viability: 0.635
[3]; first compound 1 µM
  relative viability: 0.359
[4]; first compound 0.01 µM
  relative viability: 0.539
[4]; first compound 0.03162 µM
  relative viability: 0.623
[4]; first compound 0.1 µM
  relative viability: 0.5
[4]; first compound 0.3162 µM
  relative viability: 0.817
[4]; first compound 1 µM
  relative viability: 1.19

## ABC-1
[1]; first compound 0.2 µM
  relative viability: 0.785
[1]; first compound 0.6325 µM
  relative viability: 1.06
[1]; first compound 2 µM
  relative viability: 1.13
[1]; first compound 6.325 µM
  relative viability: 1.11
[1]; first compound 20 µM
  relative viability: 1.08
[2]; first compound 0.02 µM
  relative viability: 0.194
[2]; first compound 0.06325 µM
  relative viability: 0.195
[2]; first compound 0.2 µM
  relative viability: 0.265
[2]; first compound 0.6325 µM
  relative viability: 0.194
[2]; first compound 2 µM
  relative viability: 0.218
[4]; first compound 0.01 µM
  relative viability: 0.69
[4]; first compound 0.03162 µM
  relative viability: 0.864
[4]; first compound 0.1 µM
  relative viability: 0.665
[4]; first compound 0.3162 µM
  relative viability: 0.717
[4]; first compound 1 µM
  relative viability: 0.733

## NCI-H650
[1]; first compound 0.2 µM
  relative viability: 1.06
[1]; first compound 0.6325 µM
  relative viability: 1.28
[1]; first compound 2 µM
  relative viability: 1.12
[1]; first compound 6.325 µM
  relative viability: 1.14
[1]; first compound 20 µM
  relative viability: 1.08
[2]; first compound 0.06325 µM
  relative viability: 0.746
[2]; first compound 0.2 µM
  relative viability: 0.756
[2]; first compound 0.6325 µM
  relative viability: 0.789
[2]; first compound 2 µM
  relative viability: 0.706
[4]; first compound 0.01 µM
  relative viability: 0.944
[4]; first compound 0.03162 µM
  relative viability: 0.801
[4]; first compound 0.1 µM
  relative viability: 0.897
[4]; first compound 0.3162 µM
  relative viability: 1.31
[4]; first compound 1 µM
  relative viability: 0.898

## NCI-H1650
[2]; first compound 0.02 µM
  relative viability: 0.384
[2]; first compound 0.06325 µM
  relative viability: 0.612
[2]; first compound 0.2 µM
  relative viability: 0.356
[2]; first compound 0.6325 µM
  relative viability: 0.34
[2]; first compound 2 µM
  relative viability: 0.244
[3]; first compound 0.01 µM
  relative viability: 1.12
[3]; first compound 0.03162 µM
  relative viability: 1.11
[3]; first compound 0.1 µM
  relative viability: 1.05
[3]; first compound 0.3162 µM
  relative viability: 1.23
[3]; first compound 1 µM
  relative viability: 1.21

## NCI-H1648
[2]; first compound 0.02 µM
  relative viability: 0.704
[2]; first compound 0.06325 µM
  relative viability: 0.658
[2]; first compound 0.2 µM
  relative viability: 0.51
[2]; first compound 0.6325 µM
  relative viability: 0.59
[2]; first compound 2 µM
  relative viability: 0.385
[4]; first compound 0.01 µM
  relative viability: 0.633
[4]; first compound 0.03162 µM
  relative viability: 1.13
[4]; first compound 0.1 µM
  relative viability: 0.671
[4]; first compound 0.3162 µM
  relative viability: 0.538
[4]; first compound 1 µM
  relative viability: 0.594
